The values below are quoted from earlier work in US20080286377A1 (priority 2001, published 2008).

Data set [1] deals with alveolar bone resorption.
Data set [2] relates to osteolysis associated with wear debris. The settings on record: systemic administration.
For data set [3] the following is noted: activity assays.
In data set [4] the test system is bone resorption. The settings on record: mild to moderate Paget's disease; administration for 10 days (intravenous) to 6 months (oral); SAP activity and UHP excretion as indicators.

In the case of `NCCCC(O)(P(=O)(O)O)P(=O)(O)O` [alendronate], the “prevention of resorption, 10-second contact” value in data set [1] (10-second contact of soaked pellet to alveolar bone) is “ineffective in preventing resorption”. Besides, the “bone resorption after local administration” value in data set [1] (drug-soaked pellet against alveolar bone for 2 hours, monitored 21 days later) is “significantly reduced bone resorption”. In data set [1] (systemic administration), the “prevention of resorption, systemic administration” value is reported as “effective”. Further, in data set [2], the “osteolysis associated with wear debris” value is reported as “inhibited osteolysis”.

Take `N.N.[Cl][Pt][Cl]` [cisplatin]: the “effect of PMMA polymerization process on drug potency” value (shortened to “effect of PMMA polymerization process”) in data set [3] was “did not adversely impact or alter the therapeutic potential”.

For the compound `CN(Cc1cnc2nc(N)nc(N)c2n1)c1ccc(C(=O)N[C@@H](CCC(=O)O)C(=O)O)cc1` [methotrexate], the “effect of PMMA polymerization process” value in data set [3] is recorded as “did not adversely impact or alter the therapeutic potential”.

Take `NCCC(O)(P(=O)(O)O)P(=O)(O)O` [pamidronate disodium]: in data set [4], the “biochemical remission of bone resorption, mean duration” value was 2.7 years.

With Gentamicin, in data set [3], the “effect of PMMA polymerization process” value was “did not adversely impact or alter the therapeutic potential”.
